Columns and labels:
Wee-1 kinase = biological target: T1, Wee-1 kinase (Homo sapiens, UniProt P30291); test: Inhibitory activity against Wee-1 kinase (Lanthra Screen Wee-1 kinase kit, Tracer 178); type: binding; conditions: Wee-1 kinase 5 nM, Tracer 178 50 nM, 1 h room temperature
T1 construct: purchased Invitrogen
Procedure, shortened: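 Compound gradient in DMSO mixed with 5 nM Wee-1, 2 nM Eu-anti-GST antibody and 50 nM Tracer 178 (all final). Read after one hour at room temperature; IC50 calculated against the DMSO solvent control.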

HT29 cells = test: Antiproliferative activity against HT29 cells (Cell Titer-Lumi, ATP content); type: cell-based; conditions: Homo sapiens, HT-29, 72 after compound addition, read-out: HT-29 cells Anti-proliferative activity (IC50 for the inhibition against HT-29 cell growth)
Procedure, shortened: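 Growth inhibition IC50 derived from luminescent ATP content after 72 (units as printed) of compound exposure over a dilution gradient. Seeding density 3000 cells per well; compound added once cells had adhered overnight.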

T1 sequence (P30291 whole entry): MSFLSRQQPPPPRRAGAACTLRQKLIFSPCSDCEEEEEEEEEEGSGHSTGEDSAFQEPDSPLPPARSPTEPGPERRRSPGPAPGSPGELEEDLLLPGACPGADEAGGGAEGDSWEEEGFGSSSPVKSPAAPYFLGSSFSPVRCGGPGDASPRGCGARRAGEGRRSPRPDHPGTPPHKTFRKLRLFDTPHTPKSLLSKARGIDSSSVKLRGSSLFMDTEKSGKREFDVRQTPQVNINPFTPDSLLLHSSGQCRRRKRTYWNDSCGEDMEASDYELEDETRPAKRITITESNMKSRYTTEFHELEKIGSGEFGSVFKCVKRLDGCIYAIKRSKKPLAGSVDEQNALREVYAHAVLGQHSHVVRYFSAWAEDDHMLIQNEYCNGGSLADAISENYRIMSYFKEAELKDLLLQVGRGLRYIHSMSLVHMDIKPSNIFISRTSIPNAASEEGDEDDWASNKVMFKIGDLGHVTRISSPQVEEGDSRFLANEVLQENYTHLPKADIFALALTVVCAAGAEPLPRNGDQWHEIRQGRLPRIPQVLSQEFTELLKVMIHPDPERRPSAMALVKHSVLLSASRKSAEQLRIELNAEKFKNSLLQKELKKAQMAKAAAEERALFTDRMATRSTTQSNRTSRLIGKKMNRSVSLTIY

SMILES | IC50 (Wee-1 kinase) [nM] | IC50 (HT29 cells) [nM]
C=CCn1c(=O)c2cnc(Nc3ccc4c(c3)C3(CC3)CN(C(C)C)C4)nc2n1-c1ccc(=O)n(C(C)C)n1 [Compound 236] | ≤ 30 | ≤ 1000
C=CCn1c(=O)c2cnc(Nc3ccc4c(c3)CNCC4(C)C)nc2n1-c1ccc(=O)n(C(C)C)n1 [Compound 237] | ≤ 30 | ≤ 1000
C=CCn1c(=O)c2cnc(Nc3ccc4c(c3)CN(C)CC4(C)C)nc2n1-c1ccc(=O)n(C(C)C)n1 [Compound 238] | ≤ 30 | ≤ 1000
C=CCn1c(=O)c2cnc(Nc3ccc4c(c3)CN(C(C)C)CC4(C)C)nc2n1-c1ccc(=O)n(C(C)C)n1 [Compound 239] | ≤ 30 | ≤ 1000
C=CCn1c(=O)c2cnc(Nc3ccc4c(c3)CNCC4(F)F)nc2n1-c1ccc(=O)n(C(C)C)n1 [Compound 240] | ≤ 30 | ≤ 1000
C=CCn1c(=O)c2cnc(Nc3ccc4c(c3)CN(C)CC4(F)F)nc2n1-c1ccc(=O)n(C(C)C)n1 [Compound 241] | ≤ 30 | ≤ 1000
C=CCn1c(=O)c2cnc(Nc3ccc4c(c3)CN(C(C)C)CC4(F)F)nc2n1-c1ccc(=O)n(C(C)C)n1 [Compound 242] | ≤ 30 | ≤ 1000
C=CCn1c(=O)c2cnc(Nc3ccc4c(c3)C(C)(C)CNC4)nc2n1-c1ccc(=O)n(C(C)C)n1 [Compound 243] | ≤ 30 | ≤ 1000
C=CCn1c(=O)c2cnc(Nc3ccc4c(c3)C(C)(C)CN(C)C4)nc2n1-c1ccc(=O)n(C(C)C)n1 [Compound 244] | ≤ 30 | ≤ 1000
C=CCn1c(=O)c2cnc(Nc3ccc4c(c3)C(C)(C)CN(C(C)C)C4)nc2n1-c1ccc(=O)n(C(C)C)n1 [Compound 245] | ≤ 30 | ≤ 1000
C=CCn1c(=O)c2cnc(Nc3ccc(N(C)CCN(C)C)nc3)nc2n1-c1ccc(=O)n(C(C)C)n1 [Compound 246] | ≤ 30 | ≤ 1000
C=CCn1c(=O)c2cnc(Nc3ccc(N4CCN(C)CC4)nc3)nc2n1-c1ccc(=O)n(C(C)C)n1 [Compound 247] | ≤ 30 | ≤ 1000
C=CCn1c(=O)c2cnc(Nc3ccc(N4CCN(C)CC4)cn3)nc2n1-c1ccc(=O)n(C(C)C)n1 [Compound 248] | ≤ 30 | ≤ 1000
C=CCn1c(=O)c2cnc(Nc3cc(OC)c(N4CCN(C)CC4)cn3)nc2n1-c1ccc(=O)n(C(C)C)n1 [Compound 249] | ≤ 30 | ≤ 1000
C=CCn1c(=O)c2cnc(Nc3cnn(C4CCN(C)CC4)c3)nc2n1-c1ccc(=O)n(C(C)C)n1 [Compound 250] | 30 to 100 | 1000 to 3000
C=CCn1c(=O)c2cnc(Nc3cnn(C4CCN(C(C)C)CC4)c3)nc2n1-c1ccc(=O)n(C(C)C)n1 [Compound 251] | 30 to 100 | 1000 to 3000
C=CCn1c(=O)c2cnc(Nc3cc(N4CCN(C)CC4)c4cc[nH]c4c3)nc2n1-c1ccc(=O)n(C(C)C)n1 [Compound 252] | ≤ 30 | ≤ 1000
C=CCn1c(=O)c2cnc(Nc3cc(N4CCN(C(C)C)CC4)c4cc[nH]c4c3)nc2n1-c1ccc(=O)n(C(C)C)n1 [Compound 253] | ≤ 30 | ≤ 1000
C=CCn1c(=O)c2cnc(Nc3cc(N4CCC(N(C)C)CC4)c4cc[nH]c4c3)nc2n1-c1ccc(=O)n(C(C)C)n1 [Compound 254] | ≤ 30 | ≤ 1000
C=CCn1c(=O)c2cnc(Nc3cc(N4CCN(C)CC4)c4ccn(C)c4c3)nc2n1-c1ccc(=O)n(C(C)C)n1 [Compound 255] | ≤ 30 | ≤ 1000
C=CCn1c(=O)c2cnc(Nc3cc(N4CCN(C(C)C)CC4)c4ccn(C)c4c3)nc2n1-c1ccc(=O)n(C(C)C)n1 [Compound 256] | ≤ 30 | ≤ 1000
C=CCn1c(=O)c2cnc(Nc3cc(N4CCC(N(C)C)CC4)c4ccn(C)c4c3)nc2n1-c1ccc(=O)n(C(C)C)n1 [Compound 257] | ≤ 30 | ≤ 1000
C=CCn1c(=O)c2cnc(Nc3cc(N4CCN(C)CC4)c4ccn(C5CC5)c4c3)nc2n1-c1ccc(=O)n(C(C)C)n1 [Compound 258] | ≤ 30 | ≤ 1000
C=CCn1c(=O)c2cnc(Nc3cc(N4CCN(C(C)C)CC4)c4ccn(C5CC5)c4c3)nc2n1-c1ccc(=O)n(C(C)C)n1 [Compound 259] | ≤ 30 | ≤ 1000
C=CCn1c(=O)c2cnc(Nc3cc(N4CCC(N(C)C)CC4)c4ccn(C5CC5)c4c3)nc2n1-c1ccc(=O)n(C(C)C)n1 [Compound 260] | ≤ 30 | ≤ 1000
C=CCn1c(=O)c2cnc(Nc3ccc4c(N5CCN(C)CC5)c[nH]c4c3)nc2n1-c1ccc(=O)n(C(C)C)n1 [Compound 261] | ≤ 30 | ≤ 1000
C=CCn1c(=O)c2cnc(Nc3ccc4c(N5CCN(C(C)C)CC5)c[nH]c4c3)nc2n1-c1ccc(=O)n(C(C)C)n1 [Compound 262] | ≤ 30 | ≤ 1000

SMILES | IC50 (Wee-1 kinase) [nM] | IC50 (HT29 cells) [nM]
C=CCn1c(=O)c2cnc(Nc3ccc4c(N5CCC(N(C)C)CC5)c[nH]c4c3)nc2n1-c1ccc(=O)n(C(C)C)n1 [Compound 263] | ≤ 30 | ≤ 1000
C=CCn1c(=O)c2cnc(Nc3ccc4c(N5CCN(C)CC5)cn(C)c4c3)nc2n1-c1ccc(=O)n(C(C)C)n1 [Compound 264] | ≤ 30 | ≤ 1000
C=CCn1c(=O)c2cnc(Nc3ccc4c(N5CCN(C(C)C)CC5)cn(C)c4c3)nc2n1-c1ccc(=O)n(C(C)C)n1 [Compound 265] | ≤ 30 | ≤ 1000
C=CCn1c(=O)c2cnc(Nc3ccc4c(N5CCC(N(C)C)CC5)cn(C)c4c3)nc2n1-c1ccc(=O)n(C(C)C)n1 [Compound 266] | ≤ 30 | ≤ 1000
C=CCn1c(=O)c2cnc(Nc3ccc4c(C5CCN(C)CC5)c[nH]c4c3)nc2n1-c1ccc(=O)n(C(C)C)n1 [Compound 267] | ≤ 30 | ≤ 1000
C=CCn1c(=O)c2cnc(Nc3ccc4c(C5CCN(C(C)C)CC5)cn(C)c4c3)nc2n1-c1ccc(=O)n(C(C)C)n1 [Compound 268] | ≤ 30 | ≤ 1000
C=CCn1c(=O)c2cnc(Nc3ccc4c(ccn4C4CCNCC4)c3)nc2n1-c1ccc(=O)n(C(C)C)n1 [Compound 269] | ≤ 30 | ≤ 1000
C=CCn1c(=O)c2cnc(Nc3ccc4c(ccn4C4CCN(C)CC4)c3)nc2n1-c1ccc(=O)n(C(C)C)n1 [Compound 270] | ≤ 30 | ≤ 1000
C=CCn1c(=O)c2cnc(Nc3ccc4c(ccn4C4CCN(C(C)C)CC4)c3)nc2n1-c1ccc(=O)n(C(C)C)n1 [Compound 271] | ≤ 30 | ≤ 1000
Cc1cc(Nc2ncc3c(=O)n(C4CC4)n(-c4ccc(=O)n(C(C)C)n4)c3n2)ccc1N1CCN(C)CC1 [Compound 272] | ≤ 30 | ≤ 1000
Cc1cc(Nc2ncc3c(=O)n(C4CC4)n(-c4ccc(=O)n(C(C)C)n4)c3n2)ccc1C1CCN(C)CC1 [Compound 273] | ≤ 30 | ≤ 1000
CC(C)n1nc(-n2c3nc(Nc4ccc5c(c4)CN(C)CC54CC4)ncc3c(=O)n2C2CC2)ccc1=O [Compound 274] | ≤ 30 | ≤ 1000
CCn1c(=O)c2cnc(Nc3ccc(N4CCN(C)CC4)c(C)c3)nc2n1-c1ccc(=O)n(C(C)C)n1 [Compound 275] | ≤ 30 | ≤ 1000
CCn1c(=O)c2cnc(Nc3ccc(C4CCN(C)CC4)c(C)c3)nc2n1-c1ccc(=O)n(C(C)C)n1 [Compound 276] | ≤ 30 | ≤ 1000
CCn1c(=O)c2cnc(Nc3ccc4c(c3)CN(C)CC43CC3)nc2n1-c1ccc(=O)n(C(C)C)n1 [Compound 277] | ≤ 30 | ≤ 1000
Cc1cc(Nc2ncc3c(=O)n(C(C)C)n(-c4ccc(=O)n(C(C)C)n4)c3n2)ccc1N1CCN(C)CC1 [Compound 278] | ≤ 30 | ≤ 1000
Cc1cc(Nc2ncc3c(=O)n(C(C)C)n(-c4ccc(=O)n(C(C)C)n4)c3n2)ccc1C1CCN(C)CC1 [Compound 279] | ≤ 30 | ≤ 1000
CC(C)n1nc(-n2c3nc(Nc4ccc5c(c4)CN(C)CC54CC4)ncc3c(=O)n2C(C)C)ccc1=O [Compound 280] | ≤ 30 | ≤ 1000
C=CCn1c(=O)c2cnc(Nc3ccc(N4CCN(C)CC4)c(C)c3)nc2n1-c1ccc(=O)n(C(C)(C)C)n1 [Compound 281] | ≤ 30 | ≤ 1000
C=CCn1c(=O)c2cnc(Nc3ccc(C4CCN(C)CC4)c(C)c3)nc2n1-c1ccc(=O)n(C(C)(C)C)n1 [Compound 282] | ≤ 30 | ≤ 1000
C=CCn1c(=O)c2cnc(Nc3ccc4c(c3)CN(C)CC43CC3)nc2n1-c1ccc(=O)n(C(C)(C)C)n1 [Compound 283] | ≤ 30 | ≤ 1000
CCn1c(=O)c2cnc(Nc3ccc(N4CCN(C)CC4)cc3)nc2n1-c1ccc(=O)n(C(C)(C)C)n1 [Compound 284] | ≤ 30 | ≤ 1000
CCn1c(=O)c2cnc(Nc3ccc(N4CCN(C)CC4)c(C)c3)nc2n1-c1ccc(=O)n(C(C)(C)C)n1 [Compound 285] | ≤ 30 | ≤ 1000
CCn1c(=O)c2cnc(Nc3ccc(C4CCN(C)CC4)c(C)c3)nc2n1-c1ccc(=O)n(C(C)(C)C)n1 [Compound 286] | ≤ 30 | ≤ 1000
CCn1c(=O)c2cnc(Nc3ccc4c(c3)CN(C)CC43CC3)nc2n1-c1ccc(=O)n(C(C)(C)C)n1 [Compound 287] | ≤ 30 | ≤ 1000
CC(C)n1c(=O)c2cnc(Nc3ccc(N4CCN(C)CC4)cc3)nc2n1-c1ccc(=O)n(C(C)(C)C)n1 [Compound 288] | ≤ 30 | ≤ 1000
Cc1cc(Nc2ncc3c(=O)n(C(C)C)n(-c4ccc(=O)n(C(C)(C)C)n4)c3n2)ccc1N1CCN(C)CC1 [Compound 289] | ≤ 30 | ≤ 1000

— patent US12522607B2, “Substituted pyrazolo[3,4-d]pyrimidines as wee-1 inhibitors” (WIGEN BIOMEDICINE TECHNOLOGY (SHANGHAI) CO., LTD., priority 2020, dated 2026)
